Reference: patent publication US10227347B2, “Purinyl-N-hydroxyl pyrimidine formamide derivative, preparation methods and uses thereof” (Guizhou Bailing Group Pharmaceutical CO., LTD., priority 2015, dated 2019)
Like-named read-outs stand apart in the source and are kept apart here.

Assays:
HDAC1 = biological target: T1, HDAC1 (Homo sapiens, UniProt Q13547); test: In vitro HDAC1 enzymatic activity inhibition (Lys-Ac-AMC substrate); format: biochemical
T1 construct: purchased BPS Bioscience
Procedure, shortened: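 Fluorogenic Lys-Ac-AMC deacetylation with trypsin development in modified Tris buffer pH 7.0; compound preincubated with enzyme 15 min at ambient temperature before substrate addition. Final HDAC1 6 nM, trypsin 0.05 μM, Ac-peptide 8 μM. IC50 from four-parameter fit of % inhibition versus concentration.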

PI3Kα = biological target: T2, PI3Kα (Homo sapiens, UniProt P42336); test: PI3Kα activity inhibition (Kinase-Glo); format: biochemical; details: Table 1, graded; read-out: PI3Kα IC50
T2 construct: purchased Invitrogen PV4788
Procedure, shortened: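 Kinase-Glo luminescence read-out of remaining ATP after PI3K reaction with PIP2 and ATP substrates in 50 mM HEPES pH 7.5, 3 mM MgCl2, 1 mM EGTA, 100 mM NaCl, 0.03% CHAPS, 2 mM DTT. Incubated at ambient temperature, 1 h for PI3Kα, 2 h for PI3Kδ. IC50 from four-parameter fit of % inhibition versus concentration.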

PI3Kβ = biological target: T3, PI3Kβ (Homo sapiens, UniProt P42338); test: PI3Kβ activity inhibition (ADP-Glo); format: biochemical; details: Table 1, graded
T3 construct: purchased Millipore 14-603-K
Method: (§1) Detecting the inhibition capability of the compound to PI3Kβ and PI3Kγ activities with ADP-Glo (purchased from Promege Company; Catalog No.: v9102/3). […] The reaction system also comprises substrates as PIP2 and ATP. The reaction buffer system comprises 50 mM HEPES, 3 mM MgCl2, 1 mM EGTA, 100 mM NaCl, 0.03% CHAPS and 2 mM DTT. The pH value of the reaction buffer is 7.5. […] Mixing the system evenly for incubation under ambient temperature for 1 h; getting a new 384 well plate and transferring 5 μL reaction liquid from the each well of original 384 well plate to the corresponding wells of the new 384 well plate; adding 5 μL ADP-Glo which has been preheated to ambient temperature into each new reaction well to terminate the reaction; oscillating it slowly in dark place for 40 min's incubation after it is mixed evenly; adding 10 μL testing liquid in each reaction well, oscillating it for 1 min to mix evenly and incubating it for 1 h, then measuring the fluorescence intensity with a microplate reader and analyzing the result data with the software GraphPad Prism.
(§2) Calculating the value of IC50 as per the formula: Y=background data+(top data−background data)/(1+10^((Log IC50−X)*rate of curve))
(§3) Where, Y refers to the inhibition ratio (%) and X refers to the compound concentration.

PI3Kδ = biological target: T4, PI3Kδ (Homo sapiens, UniProt O00329); test: PI3Kδ activity inhibition (Kinase-Glo); format: biochemical; details: Table 1, graded
T4 construct: purchased Millipore 14-604-K
Method: Detecting the inhibition capability of the compound to PI3Kα and PI3Kδ activities with Kinase-Glo (purchased from Promege Company; Catalog No.: V3771). […] The reaction system also comprises substrates as PIP2 (4, 5-diphosphoinositide, purchased from Life Technologies Company) and ATP (triphosadenine, purchased from Sigma Company). The reaction buffer system comprises 50 mM HEPES (4-hydroxyethylpiperazine ethane sulfonic acid), 3 mM MgCl2, 1 mM EGTA (ethylene glycol bis(2-amino ethylether)quadrol), 100 mM NaCl, 0.03% CHAPS (3-[3-(cholamidopropyl)dimethylamino]-1-propanesulfonic acid), 2 mM DTT (dithiothreitol). The pH value of the reaction buffer is 7.5. […] Mixing the system evenly for incubation under ambient temperature (for 1 h in PI3Kα test and for 2 h in PI3Kδ test). After incubation, adding 10 μL Kinase-Glo which has been preheated to ambient temperature into each reaction well to terminate the reaction; shaking it in dark place for 15 min after it is mixed evenly, then measuring the fluorescence intensity with a microplate reader and analyzing the result data with the software GraphPad Prism.
as §2, §3

PI3Kγ [1] = biological target: T5, PI3Kγ (Homo sapiens, UniProt P48736); test: PI3Kγ activity inhibition (ADP-Glo); format: biochemical; details: Table 1, graded
T5 construct: purchased Invitrogen PR8641C
Method: as §1, §2, §3

mTOR = biological target: T6, mTOR (Homo sapiens, UniProt P42345); test: mTOR activity inhibition (ULight-4E-BP1 peptide); format: biochemical; details: Table 1, graded
T6 construct: purchased Millipore 14-770
Method: mTOR protein is purchased from Millipore Company (Catalog No.: 14-770). The reaction buffer system comprises 50 mM HEPES, 10 mM MgCl2, 1 mM EGTA, 3 mM […], 0.01% Tween-20 (purchased from Chengdu Kelong Chemical Regent Factory) and 2 mM DTT. The pH value of the reaction buffer is 7.5. Preparing 10 μL reaction system in corresponding wells of the 384 well plate, which contains the compositions as: the compound with designed concentration (or blank control), mTOR protein (with the concentration of 2.5 nM), ULight-4E-BP1 (containing the 37th and the 46th threonine residues, Thr37/46) peptide (purchased from PE Company, Catalog No.: TRF0128-M) and ATP substrates (ULight-4E-BP1 peptide, with the concentration of 50 nM and ATP, with the concentration of […]). Mixing it evenly for incubation under ambient temperature for 1 h; adding 10 μL testing liquid containing EDTA (ethylenediaminetetraacetic acid) and Eu-anti-phosphorylation-4E-BP1 (Thr37/46) antibody (purchased from PE Company, Catalog No.: TRF0216-M) into the reaction wells (after the testing liquid is added, the concentration of EDTA is 8 mM and the concentration of Eu-phosphorylation-4E-BP1 antibody is 2 nM); mixing it evenly and incubating it for 1 h under ambient temperature, then measuring the fluorescence intensity with a microplate reader and analyzing the result data with the software GraphPad Prism.
as §2, §3

[2] = system: MV4-11 cells (acute myeloid leukemia); test: Cell proliferation inhibition, MV4-11 (cck-8); format: cell-based; details: Homo sapiens, 96 h incubation, read-out: Proliferation IC50, Acute myeloid leukemia MV4-11
Procedure, shortened: (§4)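 Cells seeded at 2000-3000/well; adherent lines dosed after attachment, then 96 h incubation with compound. Viability read by MTT for solid-tumour lines (HCT116, A2780s) and CCK-8 for MV4-11; IC50 from four-parameter logistic fit of inhibition ratio versus concentration.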

[3] = system: hct116 cells (colon cancer); test: Cell proliferation inhibition, hct116 (MTT); format: cell-based; details: Homo sapiens, HCT-116; 96 h incubation; read-out: Proliferation IC50, Colon cancer hct116
Procedure, shortened: as §4

[4] = system: A2780s cells (ovarian cancer); test: Cell proliferation inhibition, A2780s (MTT); format: cell-based; details: Homo sapiens, 96 h incubation, read-out: Proliferation IC50, Ovarian cancer A2780s
Procedure, shortened: as §4

[5] = system: acetylated Ac-α-tubulin in A2780s cells; test: Induction of α-tubulin acetylation in A2780s cells (cytoblot); format: cell-based; details: Homo sapiens, 6 h treatment, read-out: Ac-Tub EC50
Method: (§5) Specific operation: After the treatment, washing each well once with 50-100 μl of cold TBS buffer [with the composition as 20 mM Tris (trismetyl aminomethane), pH7.5] and fixing it with 100 μL of 4% pre-cooled paraformaldehyde at 4° C. for 1 h; after paraformaldehyde is washed off, adding 50 μL of pre-cooled methyl alcohol in each well and evenly spreading at 4° C. for 5 min; after methyl alcohol is washed off, washing it once with the TBS buffer containing 3% skim milk powder and adding 50 μL of antibody fluid, oscillating it slightly at 4° C. and incubating overnight. For determination of Ac—H3, the antibody fluid is prepared by diluting Ac—H3 antibody and horseradish peroxide coupled secondary antibody to a same system with the TBS buffer containing 3% skim milk powder (Ac—H3 antibody is purchased from Santa Cruz Company and diluted at a ratio of 1:100; horseradish peroxide coupled secondary antibody is purchased from Jackson Company and diluted at a ratio of 1:2000); for determination of acetylated Ac-α-tubulin, the antibody fluid is prepared by diluting Ac-α-tubulin antibody and horseradish peroxide coupled secondary antibody to a same system with the TBS buffer containing 3% skim milk powder (Ac-α-tubulin antibody is purchased from Santa Cruz Company and diluted at a ratio of 1:100; horseradish peroxide coupled secondary antibody is purchased from Jackson Company and diluted at a ratio of 1:2000).
(§6) Calculating the value of IC50 as per the formula: Y=background data+(top data−background data)/(1+10^((Log EC50−X)*rate of curve)) Where, Y refers to the activating rate (%) and X refers to the compound concentration.

[6] = system: acetylated histone H3 (Ac-H3) in A2780s cells; test: Induction of histone H3 acetylation in A2780s cells (cytoblot); format: cell-based; details: Homo sapiens, 6 h treatment
Method: as §5, §6

PI3Kγ [7] = details: read-out: inhibition value to activity of PI3Kγ; literature [1]; cited from earlier work
[8] = system: MV4-11 subcutaneous tumor; details: 50 mg/kg i.p., once per two days, 22 days
From the text: During drug administration, measuring the weight and gross tumor volume of the mice per 2 days and keeping a record. The calculation formula is as V=π/6×A^2×B, where, where, V=gross tumor volume (mm^3), A=tumor width (mm) and B=tumor length (mm). Observing and keeping a record for the survival condition of the tested animals. After drug discontinuance, killing the mice through cervical dislocation and peeling off their tumors as per the operation specification of animal experiment. Evaluating the inhibition capability of the compounds to tumor activities by calculating the tumor inhibitory rate with the formula as: tumor inhibitory rate=(1−tumor weight of treatment group/tumor weight of control group)×100%. Analyzing and comparing the difference between each treatment group and control group with the method of t-test. The grading of significance level of difference is: ***, P<0.001; **, P<0.01; *, P<0.05; no statistical significance (ns), P>0.05.

[9] = system: human colon cancer hct116 subcutaneous tumor; test: Subcutaneous tumor model, human colon cancer hct116; details: 50 mg/kg, once per 2 days, intraperitoneal

T6 sequence (P42345 1362-2549 limits assumed): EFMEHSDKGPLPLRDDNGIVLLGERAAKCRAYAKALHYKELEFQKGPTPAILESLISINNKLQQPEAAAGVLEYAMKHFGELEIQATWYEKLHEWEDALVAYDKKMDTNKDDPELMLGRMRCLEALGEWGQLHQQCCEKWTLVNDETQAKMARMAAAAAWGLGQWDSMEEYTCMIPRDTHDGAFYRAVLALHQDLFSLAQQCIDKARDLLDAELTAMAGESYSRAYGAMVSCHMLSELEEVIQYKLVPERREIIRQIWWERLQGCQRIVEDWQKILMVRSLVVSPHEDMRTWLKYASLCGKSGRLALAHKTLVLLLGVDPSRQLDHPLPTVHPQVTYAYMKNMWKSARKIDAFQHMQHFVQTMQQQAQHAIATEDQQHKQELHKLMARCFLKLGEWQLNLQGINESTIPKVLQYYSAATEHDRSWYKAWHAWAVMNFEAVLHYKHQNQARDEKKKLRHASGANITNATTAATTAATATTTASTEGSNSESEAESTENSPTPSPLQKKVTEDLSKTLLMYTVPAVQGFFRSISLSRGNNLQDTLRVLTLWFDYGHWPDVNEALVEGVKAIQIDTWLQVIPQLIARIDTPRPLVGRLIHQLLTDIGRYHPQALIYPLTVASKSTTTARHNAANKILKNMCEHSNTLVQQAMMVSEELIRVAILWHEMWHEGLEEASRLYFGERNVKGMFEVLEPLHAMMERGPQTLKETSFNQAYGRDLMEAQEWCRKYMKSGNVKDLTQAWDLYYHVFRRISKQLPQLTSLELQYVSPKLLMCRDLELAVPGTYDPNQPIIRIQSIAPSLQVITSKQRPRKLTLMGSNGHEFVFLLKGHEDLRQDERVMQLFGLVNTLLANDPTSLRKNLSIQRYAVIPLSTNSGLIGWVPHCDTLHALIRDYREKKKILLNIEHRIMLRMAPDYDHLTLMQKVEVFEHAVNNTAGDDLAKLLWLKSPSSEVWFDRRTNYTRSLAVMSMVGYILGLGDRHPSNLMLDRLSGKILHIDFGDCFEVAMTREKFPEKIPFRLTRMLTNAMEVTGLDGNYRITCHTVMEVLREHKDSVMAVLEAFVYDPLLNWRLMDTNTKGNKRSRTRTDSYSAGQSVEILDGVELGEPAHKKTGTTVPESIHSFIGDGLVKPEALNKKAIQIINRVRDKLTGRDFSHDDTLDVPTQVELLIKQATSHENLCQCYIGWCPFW
T1 sequence (Q13547 whole entry, species assumed): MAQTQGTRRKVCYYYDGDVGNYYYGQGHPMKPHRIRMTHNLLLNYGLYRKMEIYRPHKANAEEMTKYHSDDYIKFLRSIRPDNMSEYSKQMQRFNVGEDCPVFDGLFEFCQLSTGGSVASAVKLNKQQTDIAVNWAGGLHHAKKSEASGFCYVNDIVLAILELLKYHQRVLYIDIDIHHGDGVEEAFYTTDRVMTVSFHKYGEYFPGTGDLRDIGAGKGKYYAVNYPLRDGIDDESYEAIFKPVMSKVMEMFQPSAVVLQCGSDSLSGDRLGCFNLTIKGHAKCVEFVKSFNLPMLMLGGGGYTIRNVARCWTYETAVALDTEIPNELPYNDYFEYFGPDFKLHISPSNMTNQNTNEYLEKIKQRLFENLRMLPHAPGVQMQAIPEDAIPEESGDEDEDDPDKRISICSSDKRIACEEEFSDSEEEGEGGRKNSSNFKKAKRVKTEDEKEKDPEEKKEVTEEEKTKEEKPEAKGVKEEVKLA
T3 sequence (P42338 whole entry, species assumed): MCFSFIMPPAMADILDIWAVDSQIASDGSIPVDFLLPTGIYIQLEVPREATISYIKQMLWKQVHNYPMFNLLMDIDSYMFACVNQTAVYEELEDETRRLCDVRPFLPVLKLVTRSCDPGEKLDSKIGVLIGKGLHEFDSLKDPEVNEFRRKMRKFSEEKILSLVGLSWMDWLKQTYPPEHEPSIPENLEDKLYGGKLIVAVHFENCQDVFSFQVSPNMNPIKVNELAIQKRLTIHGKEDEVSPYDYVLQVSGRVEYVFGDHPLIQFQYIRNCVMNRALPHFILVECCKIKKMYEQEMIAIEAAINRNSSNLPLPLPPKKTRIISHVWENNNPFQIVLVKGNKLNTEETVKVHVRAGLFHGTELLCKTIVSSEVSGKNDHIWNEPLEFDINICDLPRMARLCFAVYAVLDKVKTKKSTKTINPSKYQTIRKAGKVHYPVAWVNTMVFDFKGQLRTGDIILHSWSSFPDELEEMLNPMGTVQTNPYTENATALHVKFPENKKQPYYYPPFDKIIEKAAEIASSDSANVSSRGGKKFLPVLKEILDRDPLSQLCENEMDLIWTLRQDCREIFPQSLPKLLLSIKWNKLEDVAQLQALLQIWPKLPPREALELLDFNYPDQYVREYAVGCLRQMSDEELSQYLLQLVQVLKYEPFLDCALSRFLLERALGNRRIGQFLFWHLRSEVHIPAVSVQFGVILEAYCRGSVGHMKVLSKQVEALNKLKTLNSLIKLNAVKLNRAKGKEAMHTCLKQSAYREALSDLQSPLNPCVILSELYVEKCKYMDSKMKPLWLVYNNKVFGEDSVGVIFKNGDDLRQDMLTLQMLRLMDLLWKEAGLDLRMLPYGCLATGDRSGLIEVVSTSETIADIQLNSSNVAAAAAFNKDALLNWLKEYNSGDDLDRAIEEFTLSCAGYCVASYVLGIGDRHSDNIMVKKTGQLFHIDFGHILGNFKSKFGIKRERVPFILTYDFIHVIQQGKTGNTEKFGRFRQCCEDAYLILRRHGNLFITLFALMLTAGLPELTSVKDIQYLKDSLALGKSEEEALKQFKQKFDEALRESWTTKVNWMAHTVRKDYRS
T3 sequence (P27986 whole entry partner, species assumed): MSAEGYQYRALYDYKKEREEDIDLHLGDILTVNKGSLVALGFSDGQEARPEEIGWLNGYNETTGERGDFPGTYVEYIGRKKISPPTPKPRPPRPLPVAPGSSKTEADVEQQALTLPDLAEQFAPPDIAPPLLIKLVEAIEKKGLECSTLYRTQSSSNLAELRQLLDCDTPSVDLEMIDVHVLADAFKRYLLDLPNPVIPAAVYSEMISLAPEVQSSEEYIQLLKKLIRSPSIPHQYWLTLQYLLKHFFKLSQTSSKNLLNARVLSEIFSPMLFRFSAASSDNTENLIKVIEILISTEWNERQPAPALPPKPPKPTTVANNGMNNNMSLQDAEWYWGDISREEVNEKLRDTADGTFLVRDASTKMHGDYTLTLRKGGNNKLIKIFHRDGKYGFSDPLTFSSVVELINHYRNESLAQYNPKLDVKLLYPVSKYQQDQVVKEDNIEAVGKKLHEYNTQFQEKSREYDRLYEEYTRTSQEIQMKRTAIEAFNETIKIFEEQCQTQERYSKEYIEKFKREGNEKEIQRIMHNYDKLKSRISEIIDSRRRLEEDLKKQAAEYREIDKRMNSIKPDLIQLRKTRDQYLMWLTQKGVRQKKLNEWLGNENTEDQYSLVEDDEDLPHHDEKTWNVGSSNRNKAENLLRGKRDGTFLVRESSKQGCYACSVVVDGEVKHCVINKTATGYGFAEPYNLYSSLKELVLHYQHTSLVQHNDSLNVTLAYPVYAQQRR
T2 sequence (P42336 whole entry, species assumed): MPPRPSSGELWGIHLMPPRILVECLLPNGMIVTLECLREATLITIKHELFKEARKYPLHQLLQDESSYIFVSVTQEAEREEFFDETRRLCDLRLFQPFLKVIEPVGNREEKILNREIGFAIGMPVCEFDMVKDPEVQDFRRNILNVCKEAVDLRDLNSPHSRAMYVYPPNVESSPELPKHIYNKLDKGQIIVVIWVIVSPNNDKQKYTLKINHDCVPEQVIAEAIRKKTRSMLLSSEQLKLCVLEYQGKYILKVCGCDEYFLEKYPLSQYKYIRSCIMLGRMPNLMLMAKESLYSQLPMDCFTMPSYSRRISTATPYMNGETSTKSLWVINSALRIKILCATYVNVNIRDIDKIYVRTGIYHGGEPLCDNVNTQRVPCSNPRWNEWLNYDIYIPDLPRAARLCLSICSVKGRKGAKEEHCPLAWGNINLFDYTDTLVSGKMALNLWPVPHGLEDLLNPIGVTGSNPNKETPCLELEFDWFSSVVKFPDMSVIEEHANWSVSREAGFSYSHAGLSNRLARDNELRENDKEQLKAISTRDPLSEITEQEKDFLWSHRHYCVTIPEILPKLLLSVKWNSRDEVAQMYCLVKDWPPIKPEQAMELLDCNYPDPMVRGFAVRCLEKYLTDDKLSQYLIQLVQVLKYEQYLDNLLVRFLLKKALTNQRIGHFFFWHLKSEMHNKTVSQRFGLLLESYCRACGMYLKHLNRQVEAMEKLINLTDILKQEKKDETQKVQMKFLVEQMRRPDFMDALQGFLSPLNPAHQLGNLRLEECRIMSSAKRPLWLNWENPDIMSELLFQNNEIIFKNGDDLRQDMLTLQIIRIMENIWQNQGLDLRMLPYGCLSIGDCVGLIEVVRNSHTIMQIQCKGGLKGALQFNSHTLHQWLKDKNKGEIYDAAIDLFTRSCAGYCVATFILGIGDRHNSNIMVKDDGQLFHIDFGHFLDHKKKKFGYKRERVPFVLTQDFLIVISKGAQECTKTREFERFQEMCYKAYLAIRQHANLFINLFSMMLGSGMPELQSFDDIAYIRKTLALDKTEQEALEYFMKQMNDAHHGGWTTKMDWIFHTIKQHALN
T2 sequence (P27986 whole entry partner, species assumed): as the sequence (P27986 whole entry partner, species assumed) above

CN(Cc1nc2c(N3CCOCC3)nc(-c3ccc4[nH]ncc4c3)nc2n1C)c1ncc(C(=O)NO)cn1 [CLJ-15, 2-(((2-(1H-indazole-5-yl)-9-methyl-6-morpholine-9H-purine-8-yl))methyl(methyl)amino)-N-hydroxyl pyrimidine-5-formamide]
IC50 (HDAC1; Table 1, graded, read-out: HDAC1 IC50): < 1 nM
IC50 (HDAC1; read-out: inhibition value IC50 to the activity of HDAC1): < 1 nM
IC50 (PI3Kα): 1000 to 10000 nM
IC50 (PI3Kβ): > 10000 nM
IC50 (PI3Kδ): > 10000 nM
IC50 (PI3Kγ [1]): > 10000 nM
IC50 (mTOR): > 10000 nM
IC50 [2]: 10 to 100 nM
IC50 [3]: 10 to 100 nM
IC50 [4]: 10 to 100 nM

COc1ccc(-c2nc(N3CCOCC3)c3sc(CN(C)c4ncc(C(=O)NO)cn4)cc3n2)cn1 [CUDC907, reference compound]
IC50 (mTOR): 1000 to 10000 nM
EC50 [5]: > 200 nM
EC50 [6]: 100 to 200 nM

COc1ccc(-c2nc(N3CCOCC3)c3sc(CN(C)c4ncc(C(=O)NO)cn4)cc3n2)cn1 [CUDC-907]
IC50 (PI3Kγ [7]): 39 nM

O=C(CCCCCCC(=O)Nc1ccccc1)NO [SAHA, vorinostat, reference compound]
Final survival condition (survived individuals/total individuals) [8]: 6/6
Death [9]: 0/6
